ChEMBL document CHEMBL1201862, “PubChem BioAssay data set” (2004)
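Method: 48-hour compound exposure of cells in 96-well plates, five concentrations, linear interpolation of endpoints. GI50: concentration for 50% inhibition of growth.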 Activity calls are given as the source filed them. Rule as the data show it: active = GI50 up to about 1.1 µM and inactive = higher.

Experiments:
Test in all cases: inhibition of tumour cell growth, NCI panel, 48 h
786-0 = system: 786-0
A498 = system: A498
A549 = system: A549
CCRF-CEM = system: CCRF-CEM
COLO 205 = system: COLO 205
EKVX = system: EKVX
K562 = system: K562
KM12 = system: KM12
LOX IMVI = system: LOX IMVI
LXFL 529 = system: LXFL 529
OVCAR-3 = system: OVCAR-3
OVCAR-4 = system: OVCAR-4
OVCAR-8 = system: OVCAR-8
RPMI-8226 = system: RPMI-8226
SK-MEL-5 = system: SK-MEL-5
SNB-75 = system: SNB-75
SW-620 = system: SW-620
SF-539 = system: SF-539

Row | SMILES | GI50 (786-0) | GI50 (A498) | GI50 (A549) | GI50 (CCRF-CEM) | GI50 (COLO 205) | GI50 (EKVX) | GI50 (K562) | GI50 (KM12) | GI50 (LOX IMVI) | GI50 (LXFL 529) | GI50 (OVCAR-3) | GI50 (OVCAR-4) | GI50 (OVCAR-8) | GI50 (RPMI-8226) | GI50 (SK-MEL-5) | GI50 (SNB-75) | GI50 (SW-620) | GI50 (SF-539)
1 | CCOC(=O)C1C=C2O[C@@H]3OC4(CCCCC4)O[C@@H]3C2C2C(=O)CCC(=O)[C@@]12C(=O)OC (some centres undefined) | > 100 µM (inactive) | > 100 µM (inactive) | > 100 µM (inactive) | > 100 µM (inactive) | > 100 µM (inactive) | > 100 µM (inactive) | > 100 µM (inactive) | > 100 µM (inactive) | > 100 µM (inactive) | > 100 µM (inactive) | 82.4 µM (inactive) | > 100 µM (inactive) | > 100 µM (inactive) | > 100 µM (inactive) | > 100 µM (inactive) | > 100 µM (inactive) | > 100 µM (inactive) | –
2 | COC(=O)C12C3C4C1C1C2C3C41C(=O)N(C(C)C)C(C)C (centres undefined) | > 100 µM (inactive) | > 100 µM (inactive) | > 100 µM (inactive) | > 100 µM (inactive) | > 100 µM (inactive) | > 100 µM (inactive) | > 100 µM (inactive) | > 100 µM (inactive) | – | > 100 µM (inactive) | > 100 µM (inactive) | > 100 µM (inactive) | > 100 µM (inactive) | – | > 100 µM (inactive) | 50.2 µM (inactive) | > 100 µM (inactive) | > 100 µM (inactive)
3 | O=C(CC(C(=O)c1ccsc1)c1cccs1)c1cccs1 (centres undefined) | > 100 µM (inactive) | 66.4 µM (inactive) | 42.6 µM (inactive) | 43.1 µM (inactive) | 94.8 µM (inactive) | 42.5 µM (inactive) | 73.5 µM (inactive) | – | 68.2 µM (inactive) | 38.5 µM (inactive) | 38.7 µM (inactive) | 48.6 µM (inactive) | 83.8 µM (inactive) | 33.1 µM (inactive) | 22.9 µM (inactive) | 28.1 µM (inactive) | > 100 µM (inactive) | > 100 µM (inactive)
4 | NC1=NC(=O)C(CC(=O)Nc2ccc(Cl)cc2Cl)S1 (centres undefined) | > 100 µM (inactive) | 57.4 µM (inactive) | > 100 µM (inactive) | 5.13 µM (inactive) | > 100 µM (inactive) | > 100 µM (inactive) | > 100 µM (inactive) | > 100 µM (inactive) | > 100 µM (inactive) | > 100 µM (inactive) | > 100 µM (inactive) | > 100 µM (inactive) | > 100 µM (inactive) | > 100 µM (inactive) | > 100 µM (inactive) | > 100 µM (inactive) | > 100 µM (inactive) | > 100 µM (inactive)
5 | COc1cc2c(c(OC)c1OC)-c1ccc(SC)c(=O)cc1[C@@H](NCc1ccccc1[N+](=O)[O-])CC2 | 0.0246 µM (active) | 0.00417 µM (active) | 0.00929 µM (active) | 0.00532 µM (active) | 0.0082 µM (active) | 0.0564 µM (active) | 0.00369 µM (active) | 0.00406 µM (active) | 0.00834 µM (active) | 0.0128 µM (active) | 0.00428 µM (active) | 0.719 µM (active) | 0.0184 µM (active) | 0.00671 µM (active) | 0.00411 µM (active) | 0.00225 µM (active) | 0.00333 µM (active) | 0.00525 µM (active)
6 | O=[N+]([O-])c1cc(C(F)(F)F)cc([N+](=O)[O-])c1CCl | 3.14 µM (inactive) | 18.6 µM (inactive) | 9.53 µM (inactive) | 0.0993 µM (active) | 2.13 µM (inactive) | 6.81 µM (inactive) | 0.18 µM (active) | 2.23 µM (inactive) | 0.0826 µM (active) | 0.228 µM (active) | 5.24 µM (inactive) | 1.63 µM (inactive) | 2.14 µM (inactive) | 1.16 µM (inactive) | 0.456 µM (active) | 4.5 µM (inactive) | 0.429 µM (active) | 4.81 µM (inactive)
7 | COC(OC)C(C)CC(=O)N(C)C (centres undefined) | > 100 µM (inactive) | > 100 µM (inactive) | > 100 µM (inactive) | > 100 µM (inactive) | > 100 µM (inactive) | > 100 µM (inactive) | > 100 µM (inactive) | > 100 µM (inactive) | > 100 µM (inactive) | > 100 µM (inactive) | > 100 µM (inactive) | > 100 µM (inactive) | > 100 µM (inactive) | > 100 µM (inactive) | > 100 µM (inactive) | > 100 µM (inactive) | > 100 µM (inactive) | > 100 µM (inactive)
8 | O=C(Nc1cc(Cl)c(Cl)cc1Cl)C(=O)C1C(=O)NC(=S)NC1=O | > 100 µM (inactive) | > 100 µM (inactive) | > 100 µM (inactive) | > 100 µM (inactive) | > 100 µM (inactive) | > 100 µM (inactive) | > 100 µM (inactive) | > 100 µM (inactive) | > 100 µM (inactive) | > 100 µM (inactive) | – | > 100 µM (inactive) | > 100 µM (inactive) | > 100 µM (inactive) | > 100 µM (inactive) | > 100 µM (inactive) | > 100 µM (inactive) | > 100 µM (inactive)
9 | CSC(=S)NNC(=O)c1ccncc1 | 16.2 µM (inactive) | 70 µM (inactive) | 61.4 µM (inactive) | 18.9 µM (inactive) | 34.9 µM (inactive) | 22.2 µM (inactive) | 19.2 µM (inactive) | 40.7 µM (inactive) | 16.8 µM (inactive) | 15.7 µM (inactive) | 21.4 µM (inactive) | – | 19.8 µM (inactive) | 22.3 µM (inactive) | 23.7 µM (inactive) | 17.5 µM (inactive) | 11.3 µM (inactive) | 19.8 µM (inactive)
10 | C#CCNC(=O)NCCCCC(NC(=O)OCc1ccccc1)C(=O)OCc1ccccc1 (centres undefined) | > 58.1 µM (inactive) | > 100 µM (inactive) | 72.4 µM (inactive) | 18.5 µM (inactive) | 17.7 µM (inactive) | > 100 µM (inactive) | > 66.2 µM (inactive) | 29.8 µM (inactive) | 39.1 µM (inactive) | 40.3 µM (inactive) | 59.7 µM (inactive) | > 78.3 µM (inactive) | 48.4 µM (inactive) | 21.2 µM (inactive) | > 100 µM (inactive) | > 72.4 µM (inactive) | 72.8 µM (inactive) | > 60.5 µM (inactive)
11 | CC1=CC(=O)N(c2c(C)cccc2Cl)C(C)N1 (centres undefined) | > 100 µM (inactive) | > 100 µM (inactive) | > 100 µM (inactive) | > 100 µM (inactive) | > 100 µM (inactive) | > 100 µM (inactive) | > 100 µM (inactive) | > 100 µM (inactive) | > 100 µM (inactive) | > 100 µM (inactive) | > 100 µM (inactive) | > 100 µM (inactive) | > 100 µM (inactive) | – | > 100 µM (inactive) | > 100 µM (inactive) | > 100 µM (inactive) | > 100 µM (inactive)
12 | Cc1ccc(C)c(NC(=O)/C(=N\NC(N)=S)C(C#N)c2ccccc2)c1 (centres undefined) | > 100 µM (inactive) | > 100 µM (inactive) | > 100 µM (inactive) | > 100 µM (inactive) | > 100 µM (inactive) | > 100 µM (inactive) | > 100 µM (inactive) | > 100 µM (inactive) | – | > 100 µM (inactive) | > 100 µM (inactive) | > 100 µM (inactive) | > 100 µM (inactive) | > 100 µM (inactive) | > 100 µM (inactive) | > 100 µM (inactive) | > 100 µM (inactive) | > 100 µM (inactive)
13 | COc1cccc(NC(=O)C(C)(C)C)c1C=O | > 100 µM (inactive) | > 100 µM (inactive) | 71.1 µM (inactive) | 32.1 µM (inactive) | > 100 µM (inactive) | 35.3 µM (inactive) | 26.9 µM (inactive) | 42.3 µM (inactive) | 46.1 µM (inactive) | 33.7 µM (inactive) | 37 µM (inactive) | 46.1 µM (inactive) | 57.9 µM (inactive) | 19.4 µM (inactive) | 88.1 µM (inactive) | 39.3 µM (inactive) | 34.7 µM (inactive) | 68.4 µM (inactive)
14 | [O-][n+]1c2cc3c(cc2[n+]([O-])c2c(O)cccc21)CN(CCN1CCOCC1)C3 | 16.8 µM (inactive) | 44.6 µM (inactive) | 34.9 µM (inactive) | 6.12 µM (inactive) | 14.5 µM (inactive) | 14.9 µM (inactive) | 12 µM (inactive) | 16.8 µM (inactive) | – | 14.1 µM (inactive) | 18.7 µM (inactive) | 62.2 µM (inactive) | 12.1 µM (inactive) | 18.4 µM (inactive) | 56 µM (inactive) | 89.1 µM (inactive) | – | –
15 | O=C(c1ccccc1)C(c1ccccc1)C1(O)C(=O)Nc2ccc([N+](=O)[O-])cc21 (centres undefined) | > 100 µM (inactive) | > 100 µM (inactive) | > 100 µM (inactive) | 41.9 µM (inactive) | 26.2 µM (inactive) | > 100 µM (inactive) | 42.7 µM (inactive) | – | 69.7 µM (inactive) | 32.9 µM (inactive) | – | 64.6 µM (inactive) | > 100 µM (inactive) | 37.7 µM (inactive) | 24 µM (inactive) | 61 µM (inactive) | > 100 µM (inactive) | > 100 µM (inactive)
16 | O=C(CC1(O)C(=O)Nc2ccc([N+](=O)[O-])cc21)c1ccc(Br)cc1 (centres undefined) | 61 µM (inactive) | 23.2 µM (inactive) | > 100 µM (inactive) | 47.4 µM (inactive) | > 100 µM (inactive) | > 100 µM (inactive) | 54.6 µM (inactive) | 42.9 µM (inactive) | 60.4 µM (inactive) | 47.1 µM (inactive) | 43 µM (inactive) | 49.7 µM (inactive) | 39.8 µM (inactive) | 35.5 µM (inactive) | – | 23.3 µM (inactive) | > 10 µM (inactive) | 59.4 µM (inactive)
